In US20190330142A1, “INHIBITORS OF MTOR-DEPTOR INTERACTIONS AND METHODS OF USE THEREOF” (The Regents of the University of California, priority 2016, published 2019):
Where two headings read alike, the source gives them in different places.

Legend:
8226 MM cell line = test: MTT cytotoxicity assay, 8226 MM cells; conditions: for anti-MM cytotoxicity in MTT assay compared to parent B: 48 hr MTT
Procedure: In mTORC1, mTOR phosphorylates the p70S6 kinase. Thus, a Western blot was used to test for induction of p70 phosphorylation in this secondary screen. Compounds were tested at 0.5, 1, and 2 uM with 6 hrs in vitro exposure. […] A summary of the p70 phosphorylation data from 4 separate experiments where derivatives were used at 0.5 uM, is shown in FIG. 3B. These first 8 derivatives were also screened for cytotoxicity against the same 8226 MM cell line in 48 hr MTT assays.
P70 phosphorylation was measured in 8226 cells treated for 6 hrs. […] The structures and biological activity of all derivatives are shown in Tables 1-4, categorized by structural modification.
The MTT assay was performed by seeding 1-2×10^4 target cells in 0.1 ml of complete media into wells of a 96 well microtiter plate. After incubation with compounds, the reduction of MTT to formazan by live cells was determined with a microplate ELISA reader equipped with a 570 nm filter.
The induction of p70 phosphorylation by derivative compounds was determined by densitometry, comparing immunoblot signals of phosphorylated p70 vs total p70. This ratio was then compared to that resulting from parental compound B, with the latter ratio arbitrarily placed at ‘1’. The IC50 for MTT cytotoxicity was determined using a range of concentrations of derivatives. Percent apoptosis was enumerated by flow cytometry in drug-treated cultures by subtracting control apoptosis determined from DMSO-treated cultures.

8226 cells = test: apoptosis assay (activated caspase 3, flow cytometry) in 8226 cells; assay type: cell-based; conditions: 48 hrs
Procedure: (§1) These were then studied in more detail. […] This was clearly shown for 4d, 4e, 4 g, and 3 g.
To identify apoptotic cells, a phycoerythrin (PE)-conjugated antibody specific for activated caspase 3 (BD Biosciences) was used. For staining, 10^6 cells were washed with PB S and fixed and permeabilized with 0.5 ml cytofix/cytoperm solution. The cells were then incubated with a 1:5 dilution of PE-conjugated monoclonal anti-caspase 3 antibody for 30 mins and analyzed by flow cytometry.

[1] = tested on: p70 phosphorylation (mTORC1 activity) in 8226 cells; test: p70 phosphorylation Western blot (TORC1 activity) in 8226 cells; assay type: cell-based; conditions: for p70 phosphorylation vs compound B at lower concentrations: as low as 0.25 uM; for p70 phosphorylation vs compound B at lower concentrations / induction of p70 phosphorylation / p70 phosphorylation vs the parent B: 6 hrs; for p70 phosphorylation vs the parent B: compound B arbitrarily 1
Procedure: In mTORC1, mTOR phosphorylates the p70S6 kinase.
(§2) The 8226 and MM1.S myeloma cell lines were purchased from ATCC. The cell lines were characterized by FISH analysis and shown to contain MAF/Ig translocations. Western blot confirmed a significant over-expression of DEPTOR protein. Both lines were tested for mycoplasma within the last 6 months and were negative. Western blot assay—Protein was extracted and separated by 12.5% SDS-PAGE as previously described (see new ref below). Proteins were transferred to polyvinylidene difluoride membranes and their expression was detected utilizing specific antibodies purchased from Cell Signaling (Beverly, Mass.).

MM1.S MM cell line = test: MTT cytotoxicity assay, MM1.S cells; assay type: cell-based; conditions: Homo sapiens, 48 hr
Procedure: The MTT assay was performed by seeding 1-2×10^4 target cells in 0.1 ml of complete media into wells of a 96 well microtiter plate. After incubation with compounds, the reduction of MTT to formazan by live cells was determined with a microplate ELISA reader equipped with a 570 nm filter. Quadruplicate wells were run for each group and the SD of each group was always <5% of the mean.

p21 expression = p21 expression immunoblot; assay type: cell-based
Procedure: as §1, §2

RAPTOR-silenced MM cells = test: MTT cytotoxicity in RAPTOR-silenced MM cells; assay type: cell-based; conditions: 48 hrs
Procedure: (§3) FIG. 5A-FIG. 5E depict exemplary assay data of compounds disclosed herein. […] Therapeutic indices (TIs) calculated as IC50 PBLs/IC50 for 8226 cells.
(§4) To compare anti-myeloma efficacy to non-specific toxicity, each of these 5 active derivatives were compared to compound B in their ability to inhibit survival of 8226 MM cells versus normal peripheral blood lymphocytes (PBLs). In head-to-head experiments, IC50 values for each target were calculated and compared. […] These derivatives were also tested for their anti-MM cytotoxicity in isogenic lines with RAPTOR knockdown.
The short hairpin RNAs (shRNA)/pLKO.1, targeting RAPTOR or a scrambled sequence (control) were obtained from Addgene. Lentivirus was produced by the UCLA Vector Core facility and stable cell lines were made by transducing cells with lentivirus and selecting in […].

DEPTOR/mTOR binding = molecular target: T1, DEPTOR/mTOR binding (Homo sapiens, UniProt Q8TB45); test: DEPTOR/mTOR co-immunoprecipitation in 8226 MM cells; assay type: cell-based; conditions: 6 hrs
T1 construct: Western blot confirmed a significant over-expression of DEPTOR protein; host or cells: 8226 multiple myeloma cells
T1 sequence (Q8TB45 whole entry): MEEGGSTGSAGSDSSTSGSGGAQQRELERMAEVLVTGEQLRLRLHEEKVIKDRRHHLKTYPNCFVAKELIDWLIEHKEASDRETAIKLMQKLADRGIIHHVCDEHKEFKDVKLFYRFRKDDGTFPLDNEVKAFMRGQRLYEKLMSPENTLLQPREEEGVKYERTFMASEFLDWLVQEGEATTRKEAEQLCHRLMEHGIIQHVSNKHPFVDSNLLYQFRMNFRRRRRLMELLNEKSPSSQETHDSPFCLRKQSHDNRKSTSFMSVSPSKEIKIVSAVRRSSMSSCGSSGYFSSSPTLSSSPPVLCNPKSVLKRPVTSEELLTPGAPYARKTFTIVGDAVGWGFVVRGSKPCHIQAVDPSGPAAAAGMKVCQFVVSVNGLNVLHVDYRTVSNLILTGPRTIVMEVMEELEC

[2] = tested on: normal peripheral blood lymphocytes (PBLs); test: survival of normal peripheral blood lymphocytes versus 8226 MM cells; assay type: cell-based; conditions: 48 hr assays
Procedure: as §3, §4

DEPTOR-mTOR interaction = molecular target: T2, DEPTOR-mTOR interaction (Homo sapiens, UniProt Q8TB45); test: yeast-2-hybrid screen of NCI library; assay type: cell-based; conditions: pilot screening, hits
T2 construct: expressed in transfected cells; host or cells: yeast (two-hybrid)
T2 sequence (Q8TB45 whole entry): as above
Text: (§5) The third compound, NSC118305, presented several positions for variation but we were worried about the conjugated diene unit since such polyolefinic units might give a rise to non-selective toxicity. […] Therefore the final compound shown, NSC 126405, which was called simply compound B, was chosen as the first compound to modify to try to improve its activity.

[3] = tested on: normal hematopoietic colony forming cells; test: colony formation of normal hematopoietic colony forming cells; assay type: cell-based; conditions: concentrations as high as 10 μM
Text: as §5

[4] = 48 h, read-out: MTT (IC50, uM) 8226
[5] = 8226 cells, 0.5 uM, compared to compound B

| Structure (SMILES) | IC50 (8226 MM cell line; [4]) [µM] | anti-MM cytotoxicity in MTT assay compared to parent B (8226 MM cell line) | IC50 (MM1.S MM cell line) [µM] | induction of p70 phosphorylation [1, 5] | p70 phosphorylation vs the parent B ([1]; 8226 cells, 0.5 uM) | other results |
| --- | --- | --- | --- | --- | --- | --- |
| O=C(c1ccc(F)cc1)N(N=C1C(Cl)=C(Cl)C(Cl)=C1Cl)C(=O)c1ccc(F)cc1 [compound 4e, 4-Fluoro-N-(4-fluorobenzoyl)-N′-(perchlorocyclopenta-2,4-dien-1-ylidene)benzohydrazide] | 0.25 | enhanced cytotoxic effects | 0.3 |  |  | apoptosis activity compared to parent compound B (8226 cells): enhanced compared to parent compound B; p70 phosphorylation vs compound B at lower concentrations [1]: significantly more effective; p21 expression compared to parent compound B (p21 expression): enhanced p21 expression |
| NN=c1c2ccccc2oc2ccccc12 [6b, (9H-Xanthen-9-ylidene)hydrazine] | > 5 | did not show any improvement | > 5 | did not show any improvement | no increase |  |
| Fc1ccccc1NN=C1C(Cl)=C(Cl)C(Cl)=C1Cl [3j, 1-(2-Fluorophenyl)-2-(perchlorocyclopenta-2,4-dien-1-ylidene)hydrazine] | > 3 |  | > 3 | no activity | no increase |  |
| COc1cccc(NN=C2C(Cl)=C(Cl)C(Cl)=C2Cl)c1 [3i, 1-(3-Methoxyphenyl)-2-(perchlorocyclopenta-2,4-dien-1-ylidene)hydrazine] | > 3 |  | > 3 |  | no increase |  |
| CC(C)(C)OC(=O)NN=C1c2ccccc2-c2ccccc21 [6e, tert-Butyl 2-(9H-fluoren-9-ylidene)hydrazine-1-carboxylate] | > 5 | did not show any activity | > 5 | did not show any activity | no increase |  |
| Fc1ccc(NN=C2C(Cl)=C(Cl)C(Cl)=C2Cl)cc1 [3k, 1-(4-Fluorophenyl)-2-(perchlorocyclopenta-2,4-dien-1-ylidene)hydrazine] | 0.7 | enhanced cytotoxic effects | 1.3 | much better activity |  | cytotoxicity against RAPTOR-silenced MM cells vs control shSCRAMBLE (RAPTOR-silenced MM cells): significantly decreased cytotoxicity; apoptosis activity compared to parent compound B (8226 cells): enhanced compared to parent compound B; p70 phosphorylation vs compound B at lower concentrations [1]: significantly more effective; DEPTOR/mTOR binding in MM cells (DEPTOR/mTOR binding; 0.5 uM): prevented DEPTOR/mTOR binding; therapeutic index (IC50 PBLs/IC50 for 8226 cells) compared to compound B [2]: significantly improved therapeutic indices |
| ClC1=C(Cl)C(Cl)=C(Cl)C1=NNC1CCCCC1 [3b, 1-Cyclohexyl-2-(perchlorocyclopenta-2,4-dien-1-ylidene)hydrazine] | > 3 |  | > 3 |  | no increase |  |
| CCCCCCCCNS(=O)(=O)c1ccccc1 [NSC119670] |  |  |  |  |  | inhibition of the DEPTOR-mTOR interaction (DEPTOR-mTOR interaction): specifically inhibited the DEPTOR-mTOR interaction |
| CC(C)(C)C(=O)NN=C1C(Cl)=C(Cl)C(Cl)=C1Cl [4d, N′-(Perchlorocyclopenta-2,4-dien-1-ylidene)pivalohydrazide] | 0.12 | enhanced cytotoxic effects | 2 |  |  | apoptosis activity compared to parent compound B (8226 cells): enhanced compared to parent compound B; p70 phosphorylation vs compound B at lower concentrations [1]: significantly more effective; p21 expression compared to parent compound B (p21 expression): enhanced p21 expression |
| Cc1cccc(NN=C2C(Cl)=C(Cl)C(Cl)=C2Cl)c1 [3h, 1-(Perchlorocyclopenta-2,4-dien-1-ylidene)-2-(m-tolyl)hydrazine] | 2 |  | > 3 |  | no increase |  |
| CC(C)(C)OC(=O)NN=C1C(Cl)=C(Cl)C(Cl)=C1Cl [4g, tert-Butyl 2-(perchlorocyclopenta-2,4-dien-1-ylidene)hydrazine-1-carboxylate] | 0.1 | enhanced cytotoxic effects | 0.6 |  |  | cytotoxicity against RAPTOR-silenced MM cells vs control shSCRAMBLE (RAPTOR-silenced MM cells): significantly decreased cytotoxicity; apoptosis activity compared to parent compound B (8226 cells): enhanced compared to parent compound B; p70 phosphorylation vs compound B at lower concentrations [1]: significantly more effective; p21 expression compared to parent compound B (p21 expression): enhanced p21 expression; DEPTOR/mTOR binding in MM cells (DEPTOR/mTOR binding; 0.5 uM): prevented DEPTOR/mTOR binding; therapeutic index (IC50 PBLs/IC50 for 8226 cells) compared to compound B [2]: significantly improved therapeutic indices |
| O=C(NN=C1C(Cl)=C(Cl)C(Cl)=C1Cl)c1ccccc1 [compound 4a, N′-(Perchlorocyclopenta-2,4-dien-1-ylidene)benzohydrazide] | 0.6 | enhanced cytotoxic effects | 0.8 |  |  | toxicity to 8226 cells in p70 experiment ([1]; 0.5 uM): considerable cell death; enhancement of p70 phosphorylation ([1]; 8226 cells, 0.05-0.2 uM): no enhancement of p70 phosphorylation; induction of p70 phosphorylation ([1]; 8226 cells, 1 or 2 uM): toxic and showed degradation of p70 |
| Fc1cccc(NN=C2c3ccccc3-c3ccccc32)c1 [6d, 1-(9H-Fluoren-9-ylidene)-2-(3-fluorophenyl)hydrazine] | > 5 | did not show any activity | > 5 | did not show any activity | no increase |  |
| NN=C1C(Cl)=C(Cl)C(Cl)=C1Cl [compound B, (Perchlorocyclopenta-2,4-dien-1-ylidene)hydrazine, reference compound] |  |  | 3 | consistently ineffective |  | toxicity to normal hematopoietic colony formation [3]: not toxic to colony formation; IC50 (8226 MM cell line; 48 h, read-out: MTT (IC50, uM) 8226, 48 hr): 1.3 µM; IC50 (8226 MM cell line; read-out: MTT (IC50, uM) 8226, 48 hr): 1.5 µM; inhibition of the DEPTOR-mTOR interaction (DEPTOR-mTOR interaction): specifically inhibited the DEPTOR-mTOR interaction; DEPTOR/mTOR binding in MM cells (DEPTOR/mTOR binding; 0.5 uM): ineffective; DEPTOR/mTOR binding in MM cells (DEPTOR/mTOR binding; 1 uM): prevents DEPTOR/mTOR binding |
| CN(C)c1ccc(/C=C2\C=Cc3ccccc32)cc1F [NSC118305] |  |  |  |  |  | inhibition of the DEPTOR-mTOR interaction (DEPTOR-mTOR interaction): specifically inhibited the DEPTOR-mTOR interaction |
| CC(C)(C)NN=C1C(Cl)=C(Cl)C(Cl)=C1Cl [compound 3c, 1-(tert-Butyl)-2-(perchlorocyclopenta-2,4-dien-1-ylidene)hydrazine] | > 3 |  | > 3 | only modest activity | no increase |  |
